# Reference: US12570666B2, “Furoindazole derivatives” (Bayer Aktiengesellschaft, priority 2019, dated 2026)
# Molecular target: T1, human GPR84 receptor (Homo sapiens, UniProt Q9NQS5)
# T1 construct: frozen aliquots prepared by acCELLerate; host or cells: CHO-K1
# Experiment: cAMP HTRF assay for identification of cellular GPR84 antagonists
# Assay type: cell-based
# Settings: CHO-K1 cells stably expressing human GPR84; Forskolin + agonist 6-OAU (EC80); average or median values
# In short: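 Forskolin-stimulated CHO-K1 cells stably expressing human GPR84, agonist-suppressed cAMP measured by HTRF (665/620 ratio) after lysis. Compounds at 11 concentrations, 20 μM to 0.07 nM, duplicate; normalized to DMSO and no-agonist controls; IC50 by 4-parameter fit.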
# T1 sequence (Q9NQS5 whole entry): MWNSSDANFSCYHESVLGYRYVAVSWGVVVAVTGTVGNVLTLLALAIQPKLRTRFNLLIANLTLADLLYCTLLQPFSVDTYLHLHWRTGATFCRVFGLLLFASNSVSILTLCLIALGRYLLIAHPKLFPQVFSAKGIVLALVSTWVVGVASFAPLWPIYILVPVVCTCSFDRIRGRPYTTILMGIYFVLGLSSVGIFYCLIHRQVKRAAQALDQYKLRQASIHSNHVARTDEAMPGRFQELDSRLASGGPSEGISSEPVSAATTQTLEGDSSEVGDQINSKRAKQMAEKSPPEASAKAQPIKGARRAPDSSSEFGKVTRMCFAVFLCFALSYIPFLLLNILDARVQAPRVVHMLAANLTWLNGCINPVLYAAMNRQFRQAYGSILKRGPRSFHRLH
row,Structure (SMILES),IC50 [nM]
1,"Cc1c(C(=O)NCc2cc(C(F)(F)F)on2)oc2c1-c1nn(Cc3ccccn3)cc1CC2 [Example 25, 8-methyl-2-(pyridin-2-ylmethyl)-N-{[5-(trifluoromethyl)-1,2-oxazol-3-yl]methyl}-4,5-dihydro-2H-furo[2,3-g]indazole-7-carboxamide]",160
2,"O=C(NC[C@@H]1CCCO1)c1oc2c(c1C(F)F)-c1nn(C[C@H]3COCCO3)cc1CC2 [Example 245, 8-(difluoromethyl)-2-{[(2S)-1,4-dioxan-2-yl]methyl}-N-{[(2S)-oxolan-2-yl]methyl}-4,5-dihydro-2H-furo[2,3-g]indazole-7-carboxamide]",61
3,"O=C(NC[C@@H]1CCCO1)c1oc2c(c1C1CC1)-c1nn(Cc3ccccn3)cc1CC2 [Example 119, 8-cyclopropyl-2-(pyridin-2-ylmethyl)-N-[(2S)-tetrahydrofuran-2-ylmethyl]-4,5-dihydro-2H-furo[2,3-g]indazole-7-carboxamide]",28
4,"Cc1cccc(CNC(=O)c2oc3c(c2C(F)(F)F)-c2nn(C[C@H]4COCCO4)cc2CC3)n1 [Example 238, 2-[(2S)-1,4-Dioxan-2-ylmethyl]-N-[(6-methylpyridin-2-yl)methyl]-8-(trifluormethyl)-4,5-dihydro-2H-furo[2,3-g]indazol-7-carboxamide]",500
5,"O=C(NC[C@@H]1COCCO1)c1oc2c(c1C(F)(F)F)-c1nn(C[C@@H]3COCCO3)cc1CC2 [Example 220, N,2-bis{[(2R)-1,4-dioxan-2-yl]methyl}-8-(trifluoromethyl)-4,5-dihydro-2H-furo[2,3-g]indazole-7-carboxamide]",18
6,"Cc1cccc(Cn2cc3c(n2)-c2c(oc(C(=O)NCCN4CCC4)c2C)CC3)n1 [Example 67, N-[2-(azetidin-1-yl)ethyl]-8-methyl-2-[(6-methylpyridin-2-yl)methyl]-4,5-dihydro-2H-furo[2,3-g]indazole-7-carboxamide]",1810
7,"Cc1ccc(Cn2cc3c(n2)-c2c(oc(C(=O)NC[C@@H]4COCCO4)c2C)CC3)nc1 [Example 65, N-[(2R)-1,4-dioxan-2-ylmethyl]-8-methyl-2-[(5-methylpyridin-2-yl)methyl]-4,5-dihydro-2H-furo[2,3-g]indazole-7-carboxamide]",26
8,"O=C(NCCc1cccnc1)c1oc2c(c1C(F)(F)F)-c1nn(C[C@H]3COCCO3)cc1CC2 [Example 236, 2-[(2S)-1,4-Dioxan-2-ylmethyl]-N-[2-(pyridin-3-yl)ethyl]-8-(trifluormethyl)-4,5-dihydro-2H-furo[2,3-g]indazol-7-carboxamide]",8760

# Further compounds by falling IC50, results first:
row,IC50 [nM],Structure (SMILES)
1,192,"Cn1ccc(CNC(=O)c2oc3c(c2C(F)(F)F)-c2nn(C[C@H]4COCCO4)cc2C2(CCC2)C3)n1 [Example 270, 2′-[(2S)-1,4-dioxan-2-ylmethyl]-N-[(1-methyl-1H-pyrazol-3-yl)methyl]-8′-(trifluormethyl)-2′,5′-dihydrospiro[cyclobutan-1,4′-furo[2,3-g]indazol]-7′-carboxamide]"
2,160,"Cc1c(C(=O)NCc2nccs2)oc2c1-c1nn(Cc3ccccn3)cc1CC2 [Example 23, 8-methyl-2-(pyridin-2ylmethyl)-N-(1,3-thiazol-2-ylmethyl)-4,5-dihydro-2H-furo[2,3-g]indazole-7-carboxamide]"
3,92,Cc1c(C(=O)NCC2CC3(CC3)CO2)oc2c1-c1nn(Cc3ccccn3)cc1CC2 (racemic) [Example 178]
4,75,"Cc1c(C(=O)NC[C@@H]2COCCO2)oc2c1-c1nn(Cc3ccccn3)cc1C(C)C2 (mixture of isomers) [Example 246, (4±)-N-{[(2R)-1,4-dioxan-2-yl]methyl}-4,8-dimethyl-2-[(pyridin-2-yl)methyl]-4,5-dihydro-2H-furo[2,3-g]indazole-7-carboxamide]"
5,5,"C[C@@H]1Cc2oc(C(=O)NCc3nccs3)c(C(F)(F)F)c2-c2nn(C[C@H]3COCCO3)cc21 (single isomer, unassigned) [Example 259, (4R or 4S)-2-{[(2S)-1,4-dioxan-2-yl]methyl}-4-methyl-N-[(1,3-thiazol-2-yl)methyl]-8-(trifluoromethyl)-4,5-dihydro-2H-furo[2,3-g]indazole-7-carboxamide]"
